Measurements published in patent US20260306640A1, “TECHNOLOGIES TARGETING CELL STATES” (Auron Therapeutics, Inc., priority 2023, published 2026).

Each compound was assayed against KAT2A (Homo sapiens, UniProt Q92830) (assay: KAT2A degradation, Western Blot (Jess), MOLM-13 cells). Conditions: MOLM-13 cells, KAT2A, 24 h, Western Blot, vs DMSO; read-out: KAT2A MOLM-13 DC50.
Format: cell-based
Parameters: degrader, Western blot
How it was run: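 MOLM-13 cells in RPMI 1640/20% FBS were treated with compound for 24 h at 37 °C. RIPA lysates (4 μg) were run on a capillary Western (Jess) with anti-KAT2A antibody and chemiluminescent detection. DC50 comes from percent protein reduction versus DMSO control.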

Sequence of KAT2A (Q92830 whole entry): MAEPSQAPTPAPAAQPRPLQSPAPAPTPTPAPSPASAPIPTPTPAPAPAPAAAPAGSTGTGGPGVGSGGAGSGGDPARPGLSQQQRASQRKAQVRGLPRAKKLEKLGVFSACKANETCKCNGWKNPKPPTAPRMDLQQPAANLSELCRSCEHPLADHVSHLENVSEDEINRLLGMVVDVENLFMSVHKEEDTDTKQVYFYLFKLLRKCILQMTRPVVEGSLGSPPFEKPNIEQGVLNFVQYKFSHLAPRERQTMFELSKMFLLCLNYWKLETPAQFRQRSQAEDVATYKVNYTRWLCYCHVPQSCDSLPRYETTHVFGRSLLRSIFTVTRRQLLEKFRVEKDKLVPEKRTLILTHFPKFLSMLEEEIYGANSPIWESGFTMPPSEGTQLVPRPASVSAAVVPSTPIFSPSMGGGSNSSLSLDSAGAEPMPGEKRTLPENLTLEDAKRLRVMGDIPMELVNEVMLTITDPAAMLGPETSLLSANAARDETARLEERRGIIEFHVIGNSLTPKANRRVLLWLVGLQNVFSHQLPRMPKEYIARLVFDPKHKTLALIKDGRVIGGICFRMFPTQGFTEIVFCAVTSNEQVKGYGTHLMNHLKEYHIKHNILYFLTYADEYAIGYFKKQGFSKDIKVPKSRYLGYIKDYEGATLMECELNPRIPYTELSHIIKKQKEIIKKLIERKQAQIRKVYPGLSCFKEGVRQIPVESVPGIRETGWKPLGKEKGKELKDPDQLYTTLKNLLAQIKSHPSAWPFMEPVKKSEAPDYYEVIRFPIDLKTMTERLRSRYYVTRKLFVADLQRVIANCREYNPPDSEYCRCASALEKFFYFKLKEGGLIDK

DC50 | Structure (SMILES)
1 to 30 nM | CN1C[C@H](Nc2cnn(C)c(=O)c2Br)C[C@H](c2ccc(C(=O)N3CCC(Oc4ccc(F)c(C5CCC(=O)NC5=O)c4)CC3)cc2)C1 (stereo partly shown) [Compound 131]
< 1 nM | CN1C[C@H](Nc2cnn(C)c(=O)c2Br)C[C@H](c2ccc(CN3CCC(Oc4ccc(F)c(C5CCC(=O)NC5=O)c4)CC3)cc2)C1 (stereo partly shown) [Compound 132]
1 to 30 nM | CN1C[C@H](Nc2cnn(C)c(=O)c2Br)C[C@H](c2ccc(CN3CCC4(CC3)CN(c3ccc(C5CCC(=O)NC5=O)cc3)C4)cc2)C1 (stereo partly shown) [Compound 133]
< 1 nM | CN1C[C@H](Nc2cnn(C)c(=O)c2Br)C[C@H](c2ccc(CN3CCC4(CC3)CCN(c3cccc(C5CCC(=O)NC5=O)c3)CC4)cc2)C1 (stereo partly shown) [Compound 134]
< 1 nM | CN1C[C@H](Nc2cnn(C)c(=O)c2Br)C[C@H](c2ccc(C(=O)N3CCC4(CC3)CCN(c3cccc(C5CCC(=O)NC5=O)c3)CC4)cc2)C1 (stereo partly shown) [Compound 135]
> 30 nM | CN1C[C@H](Nc2cnn(C)c(=O)c2Br)C[C@H](c2ccc(C(=O)N3CCC(c4ccc(CN5CCC(=O)NC5=O)cc4)CC3)cc2)C1 [Compound 136]
1 to 30 nM | CN1C[C@H](Nc2cnn(C)c(=O)c2Br)C[C@H](c2ccc(C(=O)N3CCN(c4ccc5c(c4)n(C)c(=O)n5C4CCC(=O)NC4=O)CC3)cc2)C1 (stereo partly shown) [Compound 137]
< 1 nM | CN1C[C@H](Nc2cnn(C)c(=O)c2Br)C[C@H](c2ccc(C(=O)N3CC(c4ccc5c(c4)CN(C4CCC(=O)NC4=O)C5=O)C3)cc2)C1 (stereo partly shown) [Compound 138]
< 1 nM | CN1C[C@H](Nc2cnn(C)c(=O)c2Br)C[C@H](c2ccc(CN3CC(c4ccc5c(c4)CN(C4CCC(=O)NC4=O)C5=O)C3)cc2)C1 (stereo partly shown) [Compound 139]
> 30 nM | CN1C[C@H](Nc2cnn(C)c(=O)c2Br)C[C@H](c2ccc(C(=O)N3CCC(c4cccc(CN5CCC(=O)NC5=O)c4)CC3)cc2)C1 [Compound 140]
< 1 nM | CN1C[C@H](Nc2cnn(C)c(=O)c2Cl)C[C@H](c2ccc(CN3CC(c4ccc5c(c4)CN(C4CCC(=O)NC4=O)C5=O)C3)cc2)C1 (stereo partly shown) [Compound 141]
1 to 30 nM | CN1C[C@H](Nc2cnn(C)c(=O)c2Br)C[C@H](c2ccc(C(=O)N3CCN(c4cccc5c4n(C)c(=O)n5C4CCC(=O)NC4=O)CC3)cc2)C1 (stereo partly shown) [Compound 142]
< 1 nM | CN1C[C@H](Nc2cnn(C)c(=O)c2Br)C[C@H](c2ccc(C(=O)N3CCN(c4ccc(F)c(C5CCC(=O)NC5=O)c4)CC3)cc2)C1 (stereo partly shown) [Compound 143]
< 1 nM | CN1C[C@H](Nc2cnn(C)c(=O)c2Br)C[C@H](c2ccc(C(=O)N3CC4(CCN(c5ccc(C6CCC(=O)NC6=O)cc5)CC4)C3)cc2)C1 (stereo partly shown) [Compound 144]
1 to 30 nM | CN1C[C@H](Nc2cnn(C)c(=O)c2Br)C[C@H](c2ccc(C(=O)N3CC4(C3)CN(c3ccc(C5CCC(=O)NC5=O)cc3)C4)cc2)C1 (stereo partly shown) [Compound 147]
1 to 30 nM | CN1C[C@H](Nc2cnn(C)c(=O)c2Br)C[C@H](c2ccc(C(=O)N3CC4(C3)CN(c3cccc(C5CCC(=O)NC5=O)c3)C4)cc2)C1 (stereo partly shown) [Compound 148]
1 to 30 nM | CN1C[C@H](Nc2cnn(C)c(=O)c2Br)C[C@H](c2ccc(C(=O)N3CCN(C4CCN(C5CCC(=O)NC5=O)CC4)CC3)cc2)C1 (stereo partly shown) [Compound 149]
< 1 nM | Cc1c(N[C@@H]2C[C@H](c3ccc(CN4CCC(c5ccc6c(c5)CN(C5CCC(=O)NC5=O)C6=O)CC4)cc3)CN(C)C2)cnn(C)c1=O (stereo partly shown) [Compound 150]
1 to 30 nM | CN1C[C@H](Nc2cnn(C)c(=O)c2Br)C[C@H](c2ccc(COc3ccc(C4CCC(=O)NC4=O)cc3)cc2)C1 (stereo partly shown) [Compound 151]
1 to 30 nM | CN1C[C@H](Nc2cnn(C)c(=O)c2Br)C[C@H](c2ccc(C(=O)N3CCN(c4ccc(F)c(C5CCC(=O)NC5=O)c4)CC3)cc2)C1 (stereo partly shown) [Compound 153]
< 1 nM | CN1C[C@H](Nc2cnn(C)c(=O)c2Br)C[C@H](c2ccc(CN3CC4(CCN(c5ccc(C6CCC(=O)NC6=O)cc5)CC4)C3)cc2)C1 (stereo partly shown) [Compound 154]
< 1 nM | CN1C[C@H](Nc2cnn(C)c(=O)c2Br)C[C@H](c2ccc(CN3CCC4(CC3)CCN(c3ccc(C5CCC(=O)NC5=O)c(F)c3)CC4)cc2)C1 (stereo partly shown) [Compound 156]
